How the values were obtained:
[1] = test system: KB (oral squamous cell carcinoma); assay: In vitro anti-tumor activity test (MTT), KB cells; type: cell-based; conditions: 48 hours of culture
Experimental: (§1) [In Vitro Anti-Tumor Activity Test]
(§2) The phosphine transition metal complexes obtained in the examples and the comparative examples were subjected to an in vitro anti-tumor activity test. Specifically, KB (oral squamous cell carcinoma) and A375 (malignant melanoma) were used as cancer cells, and these cells were cultured in an incubator at 37° C. in a culture medium (RPMI-1640 or DEME) to which 10% inactivated fetal calf serum, L-glutamine, sodium pyruvate, 1×10^5 U/L of penicillin, and 100 mg/L of streptomycin had been supplemented. The cells were added such that each well contained 2×10^5 cells. Subsequently, the phosphine transition metal complex dissolved in dimethylsulfoxide was added to the medium and cultured for 48 hours. After the 48 hours of culture, a 5 mg/ml (3,[4,5-dimethylthiazol-2-yl]-2,5-diphenyltetrazolium bromide MTT) solution was added at 20 μl to each well, followed by culture for 3 to 4 hours in an incubator. Thereafter, 100 μl of a solution was further added to each well to completely solubilize the generated formazan crystals. The absorbance of the resultant at 492 nm was then measured, and IC50 was calculated.

KM rats = assay: Toxicity test, single oral administration to rats; type: in vivo; conditions: for Oral administration LD50: male and female KM rats, single oral dose in corn oil, observed to the fourteenth day
Experimental: Toxicity caused when the phosphine transition metal complexes obtained in the examples and the comparative examples were orally administered to rats was tested. Specifically, male and female KM rats were quarantined and raised while being acclimated, and then the selected 20 rats in total including 10 male rats and 10 female rats were formed into a group. The phosphine transition metal complexes obtained in the examples and comparative examples were orally administered once to rats which were fasted over night before the administration and whose weights were recorded, by using corn oil as a solvent and with a design such that a group showing sufficient fatal cases was included to determine LD50.

[2] = test system: A375 (malignant melanoma); assay: In vitro anti-tumor activity test (MTT), A375 cells; type: cell-based; conditions: 48 hours of culture
Experimental: as §1, §2

| Compound | In vitro anti-tumor activity IC50, KB [1] | Oral administration LD50 (KM rats) | In vitro anti-tumor activity IC50, A375 [2] | toxicity (in words) (KM rats; oral administration to rats, compared with the other complexes) |
| --- | --- | --- | --- | --- |
| CP(c1nc2ccccc2nc1P(C)C(C)(C)C)C(C)(C)C.CP(c1nc2ccccc2nc1P(C)C(C)(C)C)C(C)(C)C.[Au+].[Cl-] (stereo not shown) [Example 3, Bis(2,3-bis(tert-butylmethylphosphino)quinoxaline)gold(I) chloride] | 0.97 µg/mL | 118.66 mg/kg | 1.22 µg/mL | – |
| Bis(2,3-bis(tert-butylmethylphosphino)quinoxaline) gold(I) chloride [Example 2] | 1.03 µg/mL | 97.44 mg/kg | 1.94 µg/mL | – |
| CP(c1nc2ccccc2nc1P(C)C(C)(C)C)C(C)(C)C.CP(c1nc2ccccc2nc1P(C)C(C)(C)C)C(C)(C)C.[Au+].[Cl-] (stereo not shown) [Example 1, bis(2,3-bis(tert-butylmethylphosphino)quinoxaline)gold(I) chloride] | 0.94 µg/mL | 134.37 mg/kg | 1.13 µg/mL | – |
| CP(c1nc2ccccc2nc1P(C)C(C)(C)C)C(C)(C)C.CP(c1nc2ccccc2nc1P(C)C(C)(C)C)C(C)(C)C.[Au+].[Cl-] (stereo not shown) [Comparative Example 1, Bis(2,3-bis(tert-butylmethylphosphino)quinoxaline)gold(I) chloride, reference compound] | 1.11 µg/mL | 90.99 mg/kg | 2.26 µg/mL | relatively high |
